In one data set the test system is LDL. As to the kind of experiment: LDL oxidation by copper, conjugated diene formation (OD 234 nm). Format: biochemical. The conditions noted are these: 10^−4 M; for LDL oxidation rate (rate of conjugated diene formation): copper alone 3 nmol/min/mg of LDL; for increase in the lag phase: relative to copper alone; for decrease in the maximum amount of conjugated dienes formed: copper alone 496 nmol per mg of LDL. The procedure:
Oxidation of LDL is an important modification which plays a major role in the onset and development of atherosclerosis (Jurgens, Hoff et al. 1987). […] Unless otherwise indicated, all reagents were from Sigma (St Quentin, France).
LDL were prepared as described by Lebeau et al. (Lebeau, Furman et al. 2000). The solutions of the test compounds were prepared at 10^−2 M in ethanol and diluted in PBS so that the final concentration ranged from 0.1 to 100 μM with a total ethanol concentration of 1% (VN).
Before oxidation, EDTA was removed from the LDL preparation by dialysis. The oxidation reaction was then carried out at 30° C. by adding 100 μl of 16.6 μM CuSO4 to 800 μl of LDL (125 μg protein/ml) and 100 μl of a test compound solution. The formation of dienes, the species to be followed, was measured by the optical density at 234 nm in the samples treated with the compounds in the presence or absence of copper. Optical density at 234 nm was measured every 10 minutes for 8 hours on a thermostated spectrophotometer (Kontron Uvikon 930). The analyses were carried out in triplicate. A compound was considered to have antioxidant activity when it shifted the lag phase latency relative to the control sample. […] FIG. 4 presents an example of the results obtained with the inventive compounds.

A further data set concerns the target T1, PPARα (Homo sapiens, UniProt Q07869).
T1 construct: expressed in transfected cells; host or cells: HepG2
T1 sequence (Q07869 239-466 limits assumed): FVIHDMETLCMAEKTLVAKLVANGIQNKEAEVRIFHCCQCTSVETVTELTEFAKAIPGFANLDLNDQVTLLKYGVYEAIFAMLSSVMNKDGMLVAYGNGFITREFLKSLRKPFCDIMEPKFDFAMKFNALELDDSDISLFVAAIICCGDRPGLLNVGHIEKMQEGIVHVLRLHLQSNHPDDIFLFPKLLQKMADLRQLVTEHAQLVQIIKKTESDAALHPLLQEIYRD
The data set is described as follows: Gal4/PPARα transactivation system in HepG2 cells (luciferase reporter). Format: cell-based. The note with it: HepG2 cells transfected with Gal4/PPARα plasmids, 24 h. On the procedure: PPAR activation was tested in vitro in RK13 fibroblast cell lines or in a hepatocyte line HepG2 by measuring the transcriptional activity of chimeras composed of the DNA binding domain of the yeast gal4 transcription factor and the ligand binding domain of the different PPARs. The example below is given for HepG2 cells.
HepG2 cells were from ECACC (Porton Down, UK) and were grown in DMEM medium supplemented with 10% (VN) fetal calf serum, 100 U/ml penicillin (Gibco, Paisley, UK) and 2 mM L-glutamine (Gibco, Paisley, UK). The culture medium was changed every two days. Cells were kept at 37° C. in a humidified 95% air/5% CO2 atmosphere.
The plasmids pG5TkpGL3, PRL-CMV, pGal4-hPPARα, pGal4-hPPARγ and pGal4-f have been described by Raspe et al. (Raspe, Madsen et al. 1999). The pGal4-mPPARα and pGal4-hPPARβ constructs were obtained by cloning PCR-amplified DNA fragments corresponding to the DEF domains of the mouse PPARα and […] nuclear receptors, respectively, into the pGal4-f vector.
HepG2 cells were seeded in 24-well culture dishes at 5×10^4 cells/well and transfected for 2 hours with the reporter plasmid pG5TkpGL3 (50 ng/well), the expression vectors pGal4-f, pGal4-mPPARα, pGal4-hPPARα, pGal4-hPPARγ, or pGal4-hPPARβ (100 ng/well) and the transfection efficiency control vector pRL-CMV (1 ng/well) according to the previously described protocol (Raspe, Madsen et al. 1999), then incubated for 36 hours with the test compounds. At the end of the experiment, the cells were lysed (Gibco, Paisley, UK) and luciferase activity was determined with a Dual-Luciferase™ Reporter Assay System kit (Promega, Madison, Wis., USA) according to the supplier's instructions. The protein content of the cell extracts was then measured with the Bio-Rad Protein Assay kit (Bio-Rad, Munich, Germany) as directed by the supplier. […] FIG. 3 gives an example of the results obtained with the inventive compounds.
FIG. 3: HepG2 cells transfected with Gal4/PPARα plasmids were incubated with different concentrations (5, 15, 50 and 100 μM) of the inventive comopunds (Ex 2a, Ex 4a, Ex 4p, Ex 5a, Ex 7 and Ex 11) for 24 h and with different concentrations of the vehicle (PC) noted 1, 2, 3, 4 as controls for the 5, 15, 50 and 100 μM concentrations of the inventive compounds (according to the 4:1 (m/m) ratio described in example 2 (Method of preparation of the inventive compounds for in vitro studies)). The results are expressed as the induction factor (luminescent signal of treated cells divided by luminescent signal of untreated cells) after the different treatments. […] The induction factors for inventive compound Ex 4p were 35 at 100 μM, 44 at 50 μM, 36 at 15 μM and 24 at 5 μM. The induction factors for compound Ex 5a were 32 at 100 μM, 34 at 50 μM, 15 at 15 μM and 4 at 5 μM. Finally, inventive compound Ex 7 induced a 19-fold induction at 100 μM, 19 at 50 μM, 7 at 15 μM and 1.5 at 5 μM. In contrast, when the cells were incubated with the vehicle (PC liposome), no significant induction was observed.
(Reporter assays use an easily measured gene product as a stand-in for the process of interest.)

One may read the melting point as the temperature of the solid-liquid transition. `CCCCCCCCCCCCCCCC(=S)OC(CN)CN.Cl.Cl`: the melting point was 224 °C (dec.).
As for “1,2-(dipalmitoyloxy)-3-tetradecylthioacetylaminopropane [Ex 9]”, in the data set on LDL, the “LDL oxidation rate (rate of conjugated diene formation)” value (shortened to “LDL oxidation rate”) is “did not significantly alter” and the “increase in the lag phase” value came out at 33%.
For `CCCCCCCCCCCCCCSCC(=O)OCC(O)CO` (stereo not drawn) [Ex 2a, 1-tetradecylthioacetylglycerol], the “LDL oxidation rate” value in the data set on LDL is “did not significantly alter”. Besides, the “increase in the lag phase” value in the data set with LDL was 67%. The “induction factor (luminescent signal of treated cells divided by luminescent signal of untreated cells)” value came to 17 fold at PPARα (5 μM), 31 fold at PPARα (15 μM), 41 fold at PPARα (50 μM) and 62 fold on PPARα (100 μM).
Regarding `CCCCCCCCCCCCCCCC(=O)OCC(COC(=O)CCCCCCCCCCCCCCC)OC(=O)CSCCCCCCCCCCCCCC` [Ex 4g, 1,3-dipalmitoyl-2-tetradecylthioacetylglycerol], in the data set with LDL, the “LDL oxidation rate” value is on record as 1.8 nmol/min/mg of LDL, the “decrease in the maximum amount of conjugated dienes formed” value amounted to 31% and the “increase in the lag phase” value is 170%. In addition, the “lag phase for conjugated diene formation” value in the data set with LDL (copper alone 104 minutes) stood at 282 min.
On to `CCCCC/C=C\C/C=C\CCCCCCCC(=O)OCC(COC(=O)CCCCCCC/C=C\C/C=C\CCCCC)OC(=O)CSCCCCCCCCCCCCCC` [Ex 4h, 1,3-dilinoleoyl-2-tetradecylthioacetylglycerol], for which, in the data set with LDL, the “LDL oxidation rate” value was 2.5 nmol/min/mg of LDL, the “decrease in the maximum amount of conjugated dienes formed” value amounted to 24% and the “increase in the lag phase” value stood at 43%.
On to `CCCCCCCCCCCCCCCC(=O)OC(COC(=O)CSCCCCCCCCCCCCCC)COC(=O)CSCCCCCCCCCCCCCC` [Ex 4o, 1.3-ditetradecylthioacetyl-2-palmitoyl-glycerol], for which, in the data set on LDL, the “LDL oxidation rate” value is recorded as “did not significantly alter” and the “increase in the lag phase” value was found to be 37%.
With `CCCCCCCCCCCCCCSCC(=O)OC(COC(C)=O)COC(C)=O` [Ex 4p, 1,3-diacetyl-2-tetradecylthioacetylglycerol], the “induction factor (luminescent signal of treated cells divided by luminescent signal of untreated cells)” value on PPARα (5 μM) came to 24 fold; at PPARα (15 μM) it was 36 fold; at PPARα (50 μM), 44 fold; on PPARα (100 μM), 35 fold.
`CCCCCCCCCCCCCCSCC(=O)NC(CO)CO` [Ex 5a, 2-tetradecylthioacetamidopropane-1.3-diol]: the “induction factor (luminescent signal of treated cells divided by luminescent signal of untreated cells)” value is on record as 4 fold on PPARα (5 μM), 15 fold at PPARα (15 μM), 34 fold on PPARα (50 μM) and 32 fold at PPARα (100 μM).
`CCCCCCCCCCCCCCSCC(=O)NCC(O)CO` (stereo not drawn) [Ex 7, 3-(tetradecylthioacetylamino)propane-1,2-diol]: the “induction factor (luminescent signal of treated cells divided by luminescent signal of untreated cells)” value at PPARα (5 μM) was determined as 1.5 fold; at PPARα (15 μM) it was 7 fold; at PPARα (50 μM), 19 fold; on PPARα (100 μM), 19 fold.

The values above are taken from patent US20060154984A1, “Therapeutic use of acyl glycerols and the nitrogen- and sulphur- containing analogues thereof” (priority 2003, published 2006).
